Source: patent US12503436B2, “Compounds and compositions for treating conditions associated with STING activity” (NOVARTIS PHARMA AG, priority 2021, dated 2025)

Molecular target: STING (Homo sapiens, UniProt Q86WV6, G230A/H232R/R293Q/R71H)
Experiment: STING reporter assay in THP1-Dual KO-IFNAR2 cells (2′3′cGAMP stimulation, luciferase reporter)
Assay type: cell-based
Conditions: 15 μM 2′3′cGAMP stimulation, 24 h, read-out: Pharmaron, THP1_IFNAR2 STING 24 h Luci Normalized: GeoMean EC50
In short: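 THP1-Dual KO-IFNAR2 cells (2×10E6 cells/mL) with compounds at 0.0017-100 μM final, stimulated with 15 μM final 2′3′cGAMP delivered by Lipofectamine 2000; 24 h at 37 °C. Luciferase in supernatant read with QUANTI-Luc Plus; EC50 derived from luminescence.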

Chain of STING (Q86WV6 whole entry R71H/G230A/H232R/R293Q): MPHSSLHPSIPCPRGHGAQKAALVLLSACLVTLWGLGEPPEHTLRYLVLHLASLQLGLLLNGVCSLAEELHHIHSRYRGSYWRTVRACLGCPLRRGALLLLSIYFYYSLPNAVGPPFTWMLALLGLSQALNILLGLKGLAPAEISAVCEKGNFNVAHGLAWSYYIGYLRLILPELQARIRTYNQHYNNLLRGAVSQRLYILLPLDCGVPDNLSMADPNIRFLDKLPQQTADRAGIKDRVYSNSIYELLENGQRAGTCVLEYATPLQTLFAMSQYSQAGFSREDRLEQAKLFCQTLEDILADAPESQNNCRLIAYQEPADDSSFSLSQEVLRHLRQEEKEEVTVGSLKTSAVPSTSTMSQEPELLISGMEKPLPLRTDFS

Row | SMILES | EC50
1 | CC(=O)Nc1c[nH]c2ccc(CCOc3ccc(C4(C)CCN(CC(F)(F)F)CC4)cc3)cc12 [Compound 198, N-(5-(2-(4-(4-methyl-1-(2,2,2-trifluoroethyl)piperidin-4-yl)phenoxy)ethyl)-1H-indol-3-yl)acetamide] | 0.2 to 1 µM
2 | O=C(Nc1c[nH]c2ccc(O[C@H]3C[C@@H](c4ccc(C(F)(F)F)cc4)C3)cc12)C1CC1 [Compound 266, N-(5-(cis-3-(4-(trifluoromethyl)phenyl)cyclobutoxy)-1H-indol-3-yl)cyclopropanecarboxamide] | 0.04 to 0.2 µM
3 | O=C(Nc1c[nH]c2ccc(OCCc3ccc(C(F)(F)F)cc3)cc12)C1CN(CC(F)F)C1 [Compound 149, 1-(2,2-difluoroethyl)-N-(5-(4-(trifluoromethyl)phenethoxy)-1H-indol-3-yl)azetidine-3-carboxamide] | 0.04 to 0.2 µM
4 | C[C@]1(C(=O)Nc2c[nH]c3ccc(OCC[C@@H]4C[C@@H]5CN(CC(F)(F)F)C[C@@H]5C4)cc23)CC[C@@H](O)CC1 [Compound 505, (1s,4S)-4-hydroxy-1-methyl-N-(5-(2-((3aR,5r,6aS)-2-(2,2,2-trifluoroethyl)octahydrocyclopenta[c]pyrrol-5-yl)ethoxy)-1H-indol-3-yl)cyclohexane-1-carboxamide] | 0.2 to 1 µM
5 | C[C@]1(C(=O)Nc2c[nH]c3ccc(O[C@H]4C[C@H](c5ccc(C(F)(F)F)cc5)C4)cc23)CC[C@H](O)CC1 (single isomer, unassigned) [Compound 425, trans-4-hydroxy-1-methyl-N-(5-(trans-3-(4-(trifluoromethyl)phenyl)cyclobutoxy)-1H-indol-3-yl)cyclohexane-1-carboxamide] | 0.2 to 1 µM
6 | CO[C@H]1C[C@H](C(=O)Nc2c[nH]c3ccc(OCC[C@@H]4C[C@@H]5CN(CC(F)(F)F)C[C@@H]5C4)cc23)C1 [Compound 296, trans-3-methoxy-N-(5-(2-((3aR,5r,6aS)-2-(2,2,2-trifluoroethyl)octahydrocyclopenta[c]pyrrol-5-yl)ethoxy)-1H-indol-3-yl)cyclobutane-1-carboxamide] | 0.04 to 0.2 µM
7 | C[C@H]1OC[C@H]1C(=O)Nc1c[nH]c2ccc(OCC[C@@H]3C[C@@H]4CN(CC(F)(F)F)C[C@@H]4C3)cc12 [Compound 510, (2R,3R)-2-methyl-N-(5-(2-((3aR,5r,6aS)-2-(2,2,2-trifluoroethyl)octahydrocyclopenta[c]pyrrol-5-yl)ethoxy)-1H-indol-3-yl)oxetane-3-carboxamide] | 0.2 to 1 µM
8 | COCC(=O)Nc1c[nH]c2ccc(OCCC3CCN(CC(F)(F)F)CC3)cc12 [Compound 117, 2-methoxy-N-(5-(2-(1-(2,2,2-trifluoroethyl)piperidin-4-yl)ethoxy)-1H-indol-3-yl)acetamide] | 0.2 to 1 µM
9 | O=C(Nc1c[nH]c2ccc(OCc3ccc(C(F)(F)F)cc3)cc12)C1CC(Cl)C1 (stereo not shown) [Compound 322, 3-chloro-N-(5-((4-(trifluoromethyl)benzyl)oxy)-1H-indol-3-yl)cyclobutane-1-carboxamide] | 0.2 to 1 µM
10 | CC(=O)Nc1c[nH]c2ccc(CCOc3ccc(OCC(F)(F)F)cc3)cc12 [Compound 452, N-(5-{2-[4-(2,2,2-trifluoroethoxy)phenoxy]ethyl}-1H-indol-3-yl)acetamide] | 0.04 to 0.2 µM
11 | CC(=O)Nc1c[nH]c2ccc(CC(Cc3ccc(C(F)(F)F)cc3)NC(C)=O)cc12 (stereo not shown) [Compound 516, N-(1-(3-acetamido-1H-indol-5-yl)-3-(4-(trifluoromethyl)phenyl)propan-2-yl)acetamide] | 5 to 100 µM
12 | COCC(=O)Nc1c[nH]c2ccc(COc3ccc(C(F)(F)F)cc3)cc12 [Compound 273, 2-methoxy-N-(5-((4-(trifluoromethyl)phenoxy)methyl)-1H-indol-3-yl)acetamide] | 0.04 to 0.2 µM
13 | CC(=O)Nc1c[nH]c2ccc(OCC3CCC(C(F)(F)F)CC3)cc12 (stereo not shown) [Compound 472, N-(5-((4-(trifluoromethyl)cyclohexyl)methoxy)-1H-indol-3-yl)acetamide] | 0.2 to 1 µM
14 | C[C@]1(C(=O)Nc2c[nH]c3ccc(OCC[C@@H]4C[C@@H]5CN(CC(F)(F)F)C[C@@H]5C4)cc23)C[C@@H](CO)C1 [Compound 511, (1s,3S)-3-(hydroxymethyl)-1-methyl-N-(5-(2-((3aR,5r,6aS)-2-(2,2,2-trifluoroethyl)octahydrocyclopenta[c]pyrrol-5-yl)ethoxy)-1H-indol-3-yl)cyclobutane-1-carboxamide] | 0.2 to 1 µM
15 | O=C(Nc1c[nH]c2ccc(O[C@H]3C[C@@H](c4ccc(C(F)(F)F)cc4)C3)cc12)C1CCOCC1 [Compound 365, N-(5-(cis-3-(4-(trifluoromethyl)phenyl)cyclobutoxy)-1H-indol-3-yl)tetrahydro-2H-pyran-4-carboxamide] | 0.04 to 0.2 µM
16 | CC(=O)Nc1c[nH]c2ccc(CCOc3cc(Cl)nc(C(F)(F)F)c3)cc12 [Compound 559, N-(5-(2-((2-chloro-6-(trifluoromethyl)pyridin-4-yl)oxy)ethyl)-1H-indol-3-yl)acetamide] | 0.2 to 1 µM
17 | CC(=O)Nc1c[nH]c2ccc(CNS(=O)(=O)c3ccc(C(F)(F)F)cc3)cc12 [Compound 265, N-(5-(((4-(trifluoromethyl)phenyl)sulfonamido)methyl)-1H-indol-3-yl)acetamide] | 5 to 100 µM
18 | CC1(C(=O)Nc2c[nH]c3ccc(CCOc4ccc(C(F)(F)F)cc4)cc23)CCCO1 (stereo not shown) [Compound 396, 2-methyl-N-(5-(2-(4-(trifluoromethyl)phenoxy)ethyl)-1H-indol-3-yl)tetrahydrofuran-2-carboxamide] | 0.2 to 1 µM
19 | CC(CCc1ccc(C(F)(F)F)cc1)c1ccc2[nH]cc(NC(=O)C3CCC3)c2c1 (stereo not shown) [Compound 131, N-(5-(4-(4-(trifluoromethyl)phenyl)butan-2-yl)-1H-indol-3-yl)cyclobutanecarboxamide] | 1 to 5 µM
20 | CO[C@H]1C[C@H](C(=O)Nc2c[nH]c3ccc(O[C@H]4C[C@@H](c5ccc(C(F)(F)F)cc5)C4)cc23)C1 [Compound 295, trans-3-methoxy-N-(5-(cis-3-(4-(trifluoromethyl)phenyl)cyclobutoxy)-1H-indol-3-yl)cyclobutane-1-carboxamide] | 0.04 to 0.2 µM
21 | O=C(Nc1c[nH]c2ccc(CCNc3ccc(C(F)(F)F)cn3)cc12)C1CCC1 [Compound 134, N-(5-(2-((5-(trifluoromethyl)pyridin-2-yl)amino)ethyl)-1H-indol-3-yl)cyclobutanecarboxamide] | 0.2 to 1 µM
22 | CC(=O)Nc1c[nH]c2ccc(OC3CCN(c4ccc(C(F)(F)F)cc4)C3)cc12 (stereo not shown) [Compound 494, N-(5-((1-(4-(trifluoromethyl)phenyl)pyrrolidin-3-yl)oxy)-1H-indol-3-yl)acetamide] | 0.2 to 1 µM
23 | CNC(Cc1ccc(C(F)(F)F)cc1)Cc1ccc2[nH]cc(NC(C)=O)c2c1 (stereo not shown) [Compound 506, N-(5-(2-(methylamino)-3-(4-(trifluoromethyl)phenyl)propyl)-1H-indol-3-yl)acetamide] | 5 to 100 µM
24 | CC(=O)Nc1c[nH]c2ccc(CCOc3ccc(OC(F)(F)F)nc3)cc12 [Compound 471, N-[5-(2-{[6-(trifluoromethoxy)pyridin-3-yl]oxy}ethyl)-1H-indol-3-yl]acetamide] | 0.2 to 1 µM
25 | CC(=O)Nc1c[nH]c2ccc(CCOc3ccc4c(c3)CCCC4)cc12 [Compound 490, N-(5-[2-(5,6,7,8-tetrahydronaphthalen-2-yloxy)ethyl]-1H-indol-3-yl}acetamide] | 0.04 to 0.2 µM
